This note sets out measurements from US20120264735A1 (priority 2009, published 2012).

The structures appear in SMILES notation. pIC50: −log10 of the molar value.

T1 sequence (P08581 25-1390): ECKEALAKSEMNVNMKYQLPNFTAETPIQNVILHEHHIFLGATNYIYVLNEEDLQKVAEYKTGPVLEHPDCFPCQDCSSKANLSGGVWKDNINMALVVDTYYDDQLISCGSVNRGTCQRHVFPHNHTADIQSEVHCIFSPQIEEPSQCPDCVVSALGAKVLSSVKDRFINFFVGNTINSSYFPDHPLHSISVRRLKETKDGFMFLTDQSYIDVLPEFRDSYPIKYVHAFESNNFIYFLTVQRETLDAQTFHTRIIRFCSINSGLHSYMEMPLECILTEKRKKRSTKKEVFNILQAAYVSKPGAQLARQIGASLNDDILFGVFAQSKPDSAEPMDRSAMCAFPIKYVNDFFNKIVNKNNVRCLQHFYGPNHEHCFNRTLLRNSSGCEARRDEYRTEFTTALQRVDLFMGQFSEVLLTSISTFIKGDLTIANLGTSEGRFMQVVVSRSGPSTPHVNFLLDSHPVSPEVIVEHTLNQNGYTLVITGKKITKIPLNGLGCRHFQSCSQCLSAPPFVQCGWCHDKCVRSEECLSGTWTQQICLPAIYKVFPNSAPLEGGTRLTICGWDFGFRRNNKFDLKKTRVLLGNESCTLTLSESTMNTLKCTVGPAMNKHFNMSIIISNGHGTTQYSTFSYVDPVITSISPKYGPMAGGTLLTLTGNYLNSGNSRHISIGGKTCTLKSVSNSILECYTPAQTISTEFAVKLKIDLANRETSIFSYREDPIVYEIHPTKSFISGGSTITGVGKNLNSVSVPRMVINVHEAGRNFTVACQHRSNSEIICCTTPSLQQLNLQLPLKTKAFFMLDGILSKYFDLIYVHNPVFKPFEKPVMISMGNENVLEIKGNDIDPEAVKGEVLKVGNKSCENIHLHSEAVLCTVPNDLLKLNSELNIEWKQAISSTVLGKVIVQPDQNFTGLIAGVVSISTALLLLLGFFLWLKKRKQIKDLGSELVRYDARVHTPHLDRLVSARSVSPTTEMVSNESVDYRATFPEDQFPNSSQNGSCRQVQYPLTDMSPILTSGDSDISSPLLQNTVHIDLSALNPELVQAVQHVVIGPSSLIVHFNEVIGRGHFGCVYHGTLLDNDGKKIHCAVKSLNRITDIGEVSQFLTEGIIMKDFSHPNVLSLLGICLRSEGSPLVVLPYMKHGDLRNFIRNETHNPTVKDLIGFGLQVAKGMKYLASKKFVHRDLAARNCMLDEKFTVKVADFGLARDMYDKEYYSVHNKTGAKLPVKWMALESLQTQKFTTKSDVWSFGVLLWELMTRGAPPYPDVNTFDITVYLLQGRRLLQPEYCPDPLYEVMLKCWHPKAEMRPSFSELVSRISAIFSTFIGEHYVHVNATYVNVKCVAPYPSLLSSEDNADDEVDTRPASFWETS

The test addresses T1, c-Met kinase (recombinant c-Met) (Homo sapiens, UniProt P08581).
T1 construct: 0.27 nM recombinant c-Met
Kind of test: In vitro kinase assay I (homogeneous time-resolved fluorescence tyrosine kinase assay). Type of test: biochemical. Put shortly:
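Biotinylated peptide (0.5 μM) phosphorylated by 0.2 nM recombinant c-Met with 50 μM MgATP, 60 min at room temperature, pH 7.4, 5% DMSO. EDTA stop; HTRF read with Eu-anti-phosphotyrosine antibody and streptavidin-APC. IC50 from 4-parameter logistic fit.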
What is called pIC50 is −log10 of the IC50, conventionally taken in molar units. Regarding `O=c1ccn(-c2ccc(F)c(F)c2)nc1Cc1cccc(-c2ncc(OC3COC3)cn2)c1` [Example 326, 1-(3,4-difluorophenyl)-3-{3-[5-(oxetan-3-yloxy)pyrimidin-2-yl]benzyl}pyridazin-4(1H)-one], the pIC50 is > 7.00.
`CC1(COc2cnc(-c3cccc(Cc4nn(-c5ccc(F)c(F)c5)ccc4=O)c3)nc2)COC1` [Example 329, 1-(3,4-difluorophenyl)-3-(3-{5-[(3-methyloxetan-3-yl)methoxy]pyrimidin-2-yl}benzyl)pyridazin-4(1H)-one]: the pIC50 is > 7.00.
In the case of `O=c1ccn(-c2cc(F)cc(F)c2)nc1Cc1cccc(-c2ncc(OC3COC3)cn2)c1` [Example 330], the pIC50 is > 7.00.
With `O=c1ccn(-c2cc(F)cc(F)c2)nc1Cc1cccc(-c2ncc(OCC3CCOCC3)cn2)c1` [Example 331, 1-(3,5-difluorophenyl)-3-{3-[5-(tetrahydro-2H-pyran-4-ylmethoxy)pyrimidin-2-yl]benzyl}pyridazin-4(1H)-one], the pIC50 is > 7.00.
The value for `CCn1cc(-n2ccc(=O)c(Cc3cccc(-c4ncc(OCC5(F)CCNCC5)cn4)c3)n2)cn1` [Example 335, 1-(1-ethyl-1H-pyrazol-4-yl)-3-(3-{5-[(4-fluoropiperidin-4-yl)methoxy]pyrimidin-2-yl}benzyl)pyridazin-4(1H)-one] was > 7.00.
As for `CCn1cc(-n2ccc(=O)c(Cc3cccc(-c4ncc(OCC5CCNCC5)cn4)c3)n2)cn1` [Example 336, 1-(1-ethyl-1H-pyrazol-4-yl)-3-{3-[5-(piperidin-4-ylmethoxy)pyrimidin-2-yl]benzyl}pyridazin-4(1H)-one], the pIC50 was > 7.00.
The value for `CCn1cc(-n2ccc(=O)c(Cc3cccc(-c4ncc(OC5CNC5)cn4)c3)n2)cn1` [Example 337, 3-{3-[5-(azetidin-3-yloxy)pyrimidin-2-yl]benzyl}-1-(1-ethyl-1H-pyrazol-4-yl)pyridazin-4(1H)-one] was > 7.00.
The value for `CC(c1cccc(-c2ncc(O[C@H]3CCNC[C@H]3F)cn2)c1)c1nn(-c2cnn(C)c2)ccc1=O` (some centres unmarked) [Example 344] was > 7.00; that for `Cn1cc(-n2ccc(=O)c(Cc3cccc(-c4ncc(OCc5ccncc5)cn4)c3)n2)cn1` [Example 353, 1-(1-Methyl-1H-pyrazol-4-yl)-3-{3-[5(pyridin-4-ylmethoxy)pyrimidin-2-yl]benzyl}pyridazin-4(1H)-one] was > 7.00.
With `Cn1cc(-n2ccc(=O)c(Cc3cccc(-c4ncc(OCc5ccccn5)cn4)c3)n2)cn1` [Example 354, 1-(1-methyl-1H-pyrazol-4-yl)-3-{3-[5-(pyridin-2-ylmethoxy)pyrimidin-2-yl]benzyl}pyridazin-4(1H)-one], the pIC50 was > 7.00.
The value for `Cn1cc(-n2ccc(=O)c(Cc3cccc(-c4ncc(OCc5cccnc5)cn4)c3)n2)cn1` [Example 355, 1-(1-methyl-1H-pyrazol-4-yl)-3-{3-[5-(pyridin-3-ylmethoxy)pyrimidin-2-yl]benzyl}pyridazin-4(1H)-one] was > 7.00.
As to `Cn1cc(-n2ccc(=O)c(Cc3cccc(-c4ncc(OCc5ncn(C)n5)cn4)c3)n2)cn1` [Example 356, 1-(1-methyl-1H-pyrazol-4-yl)-3-(3-{5-[(1-methyl-1H-1,2,4-triazol-3-yl)methoxy]pyrimidin-2-yl}benzyl)pyridazin-4(1H)-one], the pIC50 is > 7.00.
The value for `Cn1cc(-n2ccc(=O)c(Cc3cccc(-c4ncc(OCC(=O)O)cn4)c3)n2)cn1` [Example 357, [2-(3-{[1-(1-Methyl-1H-pyrazol-4-yl)-4-oxo-1,4-dihydropyridazin-3-yl]methyl}phenyl)pyrimidin-5-yl]oxyacetic acid] was > 7.00.
The result for `Cn1cc(-n2ccc(=O)c(Cc3cccc(-c4ncc(OCC(C)(C)O)cn4)c3)n2)cn1` [Example 358, 3-{3-[5-(2-Hydroxy-2-methylpropoxy)pyrimidin-2-yl]benzyl}-1-(1-methyl-1H-pyrazol-4-yl)pyridazin-4(1H)-one] reads > 7.00; that for `CCn1cc(-n2ccc(=O)c(Cc3cccc(-c4ncc(OCC(C)(C)O)cn4)c3)n2)cn1` [Example 359, 1-(1-ethyl-1H-pyrazol-4-yl)-3-{3-[5-(2-hydroxy-2-methylpropoxy)pyrimidin-2-yl]benzyl}pyridazin-4(1H)-one], > 7.00; that for `CC(C)(O)COc1cnc(-c2cccc(Cc3nn(-c4ccc(F)c(F)c4)ccc3=O)c2)nc1` [Example 360, 1-(3,4-difluorophenyl)-3-{3-[5-(2-hydroxy-2-methylpropoxy)pyrimidin-2-yl]benzyl}pyridazin-4(1H)-one], > 7.00.
In the case of `CC(C)(O)COc1cnc(-c2cccc(Cc3nn(-c4cccc(C#N)c4)ccc3=O)c2)nc1` [Example 361, 3-[3-{3-[5-(2-hydroxy-2-methylpropoxy)pyrimidin-2-yl]benzyl}-4-oxopyridazin-1(4H)-yl]benzonitrile], the negative-log IC50 (pIC50) is > 7.00.
`CC(C)(O)COc1cnc(-c2cccc(Cc3nn(-c4cc(F)c(F)c(F)c4)ccc3=O)c2)nc1` [Example 362, 3-{3-[5-(2-hydroxy-2-methylpropoxy)pyrimidin-2-yl]benzyl}-1-(3,4,5-trifluorophenyl)pyridazin-4(1H)-one]: the negative-log IC50 (pIC50) is > 7.00.
For the compound `CC(C)(O)COc1cnc(-c2cccc(Cc3nn(-c4cc(F)cc(F)c4)ccc3=O)c2)nc1` [Example 363, 1-(3,5-difluorophenyl)-3-{3-[5-(2-hydroxy-2-methylpropoxy)pyrimidin-2-yl]benzyl}pyridazin-4(1H)-one], the pIC50 was > 7.00.
The value for `Cn1cc(-n2ccc(=O)c(Cc3cccc(-c4ncc(OCC5(O)CCOCC5)cn4)c3)n2)cn1` [Example 365, 3-(3-{5-[(4-hydroxytetrahydro-2H-pyran-4-yl)methoxy]pyrimidin-2-yl}benzyl)-1-(1-methyl-1H-pyrazol-4-yl)pyridazin-4(1H)-one] was > 7.00; that for `CC(C)(O)COc1cnc(-c2cccc(Cc3nn(-c4cc(Cl)cc(C#N)c4)ccc3=O)c2)nc1` [Example 371, 3-chloro-5-[3-{3-[5-(2-hydroxy-2-methylpropoxy)pyrimidin-2-yl]benzyl}-4-oxopyridazin-1(4H)-yl]benzonitrile] was > 7.00; that for `CC(C)(O)COc1cnc(-c2cccc(Cc3nn(-c4ccc(C#N)cc4)ccc3=O)c2)nc1` [Example 372, 4-[3-{3-[5-(2-hydroxy-2-methylpropoxy)pyrimidin-2-yl]benzyl}-4-oxopyridazin-1(4H)-yl]benzonitrile] was > 7.00.
Take `O=c1ccn(-c2ccc(F)c(F)c2)nc1Cc1cccc(-c2ncc(OCC3(O)CCOCC3)cn2)c1` [Example 373, 1-(3,4-difluorophenyl)-3-(3-{5-[(4-hydroxytetrahydro-2H-pyran-4-yl)methoxy]pyrimidin-2-yl}benzyl)pyridazin-4(1H)-one]: the pIC50 was > 7.00.
Consider `Cn1cc(-n2ccc(=O)c(Cc3cccc(-c4ncc(OC(F)F)cn4)c3)n2)cn1` [Example 386, 3-{3-[5-(Difluoromethoxy)pyrimidin-2-yl]benzyl}-1-(1-methyl-1H-pyrazol-4-yl)pyridazin-4(1H)-one], for which the pIC50 was > 7.00.
The result for `Cn1cc(-n2ccc(=O)c(Cc3cccc(-c4ncc(OCC5(CF)COC5)cn4)c3)n2)cn1` [Example 387, 3-[3-(5-{[3-(Fluoromethyl)oxetan-3-yl]methoxy}pyrimidin-2-yl)benzyl]-1-(1-methyl-1H-pyrazol-4-yl)pyridazin-4(1H)-one] reads > 7.00; that for `Cn1cc(-n2ccc(=O)c(Cc3cccc(-c4ncc(OCC5(F)CCOCC5)cn4)c3)n2)cn1` [Example 388, 3-(3-{5-[(4-fluorotetrahydro-2H-pyran-4-yl)methoxy]pyrimidin-2-yl}benzyl)-1-(1-methyl-1H-pyrazol-4-yl)pyridazin-4(1H)-one], > 7.00; that for `CCc1cnc(-c2cccc(Cc3nn(-c4cnn(C)c4)ccc3=O)c2)nc1` [Example 391, 3-[3-(5-Ethylpyrimidin-2-yl)benzyl]-1-(1-methyl-1H-pyrazol-4-yl)pyridazin-4(1H)-one], > 7.00.
Turning to `CCCCc1cnc(-c2cccc(Cc3nn(-c4cnn(C)c4)ccc3=O)c2)nc1` [Example 392, 3-[3-(5-butylpyrimidin-2-yl)benzyl]-1-(1-methyl-1H-pyrazol-4-yl)pyridazin-4(1H)-one], the pIC50 is > 7.00.
The value for `Cn1cc(-n2ccc(=O)c(Cc3cccc(-c4ncc(C5CC5)cn4)c3)n2)cn1` [Example 393, 3-[3-(5-cyclopropyl-pyrimidin-2-yl)benzyl]-1-(1-methyl-1H-pyrazol-4-yl)pyridazin-4(1H)-one] was > 7.00.
`CC(C)Cc1cnc(-c2cccc(Cc3nn(-c4cnn(C)c4)ccc3=O)c2)nc1` [Example 394, 3-{3-[5-(2-methylpropyl)pyrimidin-2-yl)benzyl}-1-(1-methyl-1H-pyrazol-4-yl)pyridazin-4(1H)-one]: the negative logarithm of the IC50 (pIC50) was > 7.00.
The value for `Cn1cc(-n2ccc(=O)c(Cc3cccc(-c4ncc(CCCO)cn4)c3)n2)cn1` [Example 395, 3-{3-[5-(3-hydroxypropyl)pyrimidin-2-yl]benzyl}-1-(1-methyl-1H-pyrazol-4-yl)pyridazin-4(1H)-one] was > 7.00.
As for `Cn1cc(-n2ccc(=O)c(Cc3cccc(-c4ncc(Cc5ccccc5)cn4)c3)n2)cn1` [Example 396], the pIC50 is > 7.00.
As for `Cn1cc(-n2ccc(=O)c(Cc3cccc(-c4ncc(CCc5ccccc5)cn4)c3)n2)cn1` [Example 397, 1-(1-methyl-1H-pyrazol-4-yl)-3-{3-[5-(2-phenylethyl)pyrimidin-2-yl]benzyl}pyridazin-4(1H)-one], the pIC50 was > 7.00.
For `Cn1cc(-n2ccc(=O)c(Cc3cccc(-c4ncc(CCc5ccccn5)cn4)c3)n2)cn1` [Example 398, 1-(1-methyl-1H-pyrazol-4-yl)-3-(3-{5-[2-(pyridin-2-yl)ethyl]pyrimidin-2-yl}benzyl)pyridazin-4(1H)-one], the pIC50 was > 7.00.
For the compound `C=C(C)c1cnc(-c2cccc(Cc3nn(-c4cnn(C)c4)ccc3=O)c2)nc1` [Example 399, 1-(1-methyl-1H-pyrazol-4-yl)-3-{3-[5-(prop-1-en-2-yl)pyrimidin-2-yl]benzyl}pyridazin-4(1H)-one], the negative logarithm of the IC50 (pIC50) is > 7.00.
